Laboratory results taken from US20250034168A1, “NITROGEN-CONTAINING HETEROCYCLIC DERIVATIVE PARP INHIBITOR AND USE THEREOF” (XIZANG HAISCO PHARMACEUTICAL CO., LTD., priority 2021, published 2025).

Legend:
[1] = target: PARP-1 enzyme (Homo sapiens (Human), UniProt P09874); experiment: PARP-1 enzyme activity test; format: biochemical
Method: PARP-1 chemical […] detection kit was purchased from BPS Bioscience. The histone solution in the kit was diluted 5× with 1×PBS, and 25 μL of the diluted histone solution was added to a microwell plate and incubated overnight at 4° C. After the incubation, the plate was washed three times with PBST (0.05% Tween-20). 100 μL of the blocking solution was added to the microwell plate and incubated at 25° C. for 90 minutes. After the incubation, the plate was washed three times with PBST. 2.5 μL of compounds at different concentrations diluted in test buffer and 12.5 μL of substrate mixed solution (1.25 μL 10×PARP test buffer; 1.25 μL 10×PARP test mixed solution; 2.5 μL Activated DNA, 7.5 μL double-distilled water) were added to the microwell plate. The PARP-1 enzyme was diluted to 2 ng/μL, 10 μL of the diluent was added to the microwell plate, and the reaction system was incubated at 25° C. for 60 minutes.
After the incubation, the plate was washed three times with PBST. Streptavidin-HRP was diluted 50× with a blocking solution, and 25 μL of the diluent was added to the microwell plate and incubated at 25° C. for 30 minutes. After the incubation, the plate was washed three times with PBST. ELISA ECL substrate A and substrate B were mixed at a ratio of 1:1 (v/v), 50 μL of the mixture was added to the microwell plate, and the chemiluminescence value was read.
The inhibition rate was calculated according to formula 1, where RLUsample was the readout of the compound well, RLUmax was the readout of the solvent control well, and RLUmin was the readout of the control well without the PARP-1 enzyme. Curve fitting was performed by four parameters (log(inhibitor) vs. response—Variable slope) using GraphPad Prism software, and the IC50 value was calculated.

[2] = test system: MDA-MB-436 cells; experiment: MDA-MB-436 cell activity test; format: cell-based; details: Homo sapiens; for IC50: MDA-MB-436, 168 h, 7 days incubation, CellTiter-Glo; for inhibition at 10 µM: MDA-MB-436 cells, read-out: Max inh. % 10 μM
Method: Breast tumor cells MDA-MB-436 were purchased from ATCC, the culture medium was Leibovitz's L-15+10% FBS, and the cells were cultured in a CO2-free incubator at 37° C. On day 1, the cells in the exponential growth phase were collected, and the cell suspension was adjusted to 4000 cells/135 μL with the culture medium. 135 μL of the cell suspension was added to each well of a 96-well cell culture plate and incubated overnight. On day 2, compounds at different concentrations were added, and the plate was placed in the incubator and incubated for 7 days. After the incubation was completed, according to operation instructions for a CellTiter-Glo kit (Promega, G7573), 75 μL of CTG solution, which was already pre-melted and equilibrated to room temperature, was added to each well, and the mixture was uniformly mixed for 2 min using a microplate shaker. The plate was placed at room temperature for 10 min, and then […] were measured using an Envision2104 plate reader (PerkinElmer). The inhibition rate was calculated using formula (1), where RLUcompound was the readout of the drug treated group, RLUcontrol was the average value of the vehicle control group, and RLUblank was the average value of the cell-free well. The IC50 value was calculated using GraphPad Prism software.

Chain of PARP-1 enzyme (P09874 whole entry): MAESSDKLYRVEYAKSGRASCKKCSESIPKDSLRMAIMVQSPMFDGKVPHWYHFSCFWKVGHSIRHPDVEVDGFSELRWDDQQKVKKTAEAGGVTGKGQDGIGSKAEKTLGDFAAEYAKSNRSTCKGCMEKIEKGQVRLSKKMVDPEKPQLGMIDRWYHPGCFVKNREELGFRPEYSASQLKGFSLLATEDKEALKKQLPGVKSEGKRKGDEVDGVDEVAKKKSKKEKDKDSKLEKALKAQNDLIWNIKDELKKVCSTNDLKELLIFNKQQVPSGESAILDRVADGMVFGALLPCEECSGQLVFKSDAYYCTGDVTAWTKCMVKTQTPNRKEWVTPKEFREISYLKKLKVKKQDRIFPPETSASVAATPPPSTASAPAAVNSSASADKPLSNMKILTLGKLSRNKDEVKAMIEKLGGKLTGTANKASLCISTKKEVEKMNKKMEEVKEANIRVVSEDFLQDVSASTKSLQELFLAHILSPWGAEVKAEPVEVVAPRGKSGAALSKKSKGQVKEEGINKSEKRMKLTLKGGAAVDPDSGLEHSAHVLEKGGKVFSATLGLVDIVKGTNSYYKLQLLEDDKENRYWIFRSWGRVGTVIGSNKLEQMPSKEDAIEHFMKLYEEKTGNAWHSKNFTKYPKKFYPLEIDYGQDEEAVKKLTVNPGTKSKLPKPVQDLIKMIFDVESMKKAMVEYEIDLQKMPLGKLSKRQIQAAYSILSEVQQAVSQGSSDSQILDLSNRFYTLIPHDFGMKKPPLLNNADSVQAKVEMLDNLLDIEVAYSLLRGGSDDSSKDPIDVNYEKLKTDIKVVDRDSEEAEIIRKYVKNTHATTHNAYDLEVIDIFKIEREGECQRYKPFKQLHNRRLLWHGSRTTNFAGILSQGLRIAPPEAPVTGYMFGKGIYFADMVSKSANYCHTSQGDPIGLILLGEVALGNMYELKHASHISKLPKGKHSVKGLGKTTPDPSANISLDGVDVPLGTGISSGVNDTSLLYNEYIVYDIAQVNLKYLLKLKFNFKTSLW

SMILES	IC50 [1] [nM]	IC50 [2] [nM]	inhibition at 10 µM [2] [%]
CCc1cc2ncc(CN3C4CCC3CN(c3ccc(C(=O)NC)nc3)C4)cc2[nH]c1=O [Compound 3, 5-(8-((7-ethyl-6-oxo-5,6-dihydro-1,5-naphthyridin-3-yl)methyl)-3,8-diazabicyclo[3.2.1]octan-3-yl)-N-methylpicolinamide]	1.6		
CCc1cc2ncc(CN3CC(Nc4ccc(C(=O)NC)nc4)C3)cc2[nH]c1=O [Compound 6, 5-((1-((7-ethyl-6-oxo-5,6-dihydro-1,5-naphthyridin-3-yl)methyl)azetidin-3-yl)amino)-N-methylpicolinamide]	0.51		
CCc1cc2ncc(CN3CC=C(c4ccc(NC(=O)C5CC5)nc4)CC3)cc2[nH]c1=O [Compound 22, N-(1′-((7-ethyl-6-oxo-5,6-dihydro-1,5-naphthyridin-3-yl)methyl)-1′,2′,3′,6′-tetrahydro-[3,4′-bipyridin]-6-yl)cyclopropanecarboxamide]	0.31	2.2	89.1
CCc1cc2ncc(CN3CC=C(c4ccc(C(=O)NC5CC5)nc4)CC3)cc2[nH]c1=O [Compound 25, N-cyclopropyl-1′-((7-ethyl-6-oxo-5,6-dihydro-1,5-naphthyridin-3-yl)methyl)-1′,2′,3′,6′-tetrahydro-[3,4′-bipyridine]-6-carboxamide]	0.36		
CCc1cc2ncc(CN3CC=C(c4ccc(C(=O)N[C@@H]5C[C@@H]5F)nc4)CC3)cc2[nH]c1=O [Compound 26, 1′-((7-ethyl-6-oxo-5,6-dihydro-1,5-naphthyridin-3-yl)methyl)-N-((1R,2S)-2-fluorocyclopropyl)-1′,2′,3′,6′-tetrahydro-[3,4′-bipyridine]-6-carboxamide]	0.41	1	90.9
CCc1cc2ncc(CN3CC=C(c4cn5cc(C)nc5cn4)CC3)cc2[nH]c1=O [Compound 27, 3-ethyl-7-((4-(2-methylimidazo[1,2-a]pyrazin-6-yl)-3,6-dihydropyridin-1(2H)-yl)methyl)-1,5-naphthyridin-2(1H)-one]	0.41		
CCc1cc2ncc(CC3CCN(c4ccc(C(=O)NC)nc4)CC3)cc2[nH]c1=O [Compound 29, 5-(4-((7-ethyl-6-oxo-5,6-dihydro-1,5-naphthyridin-3-yl)methyl)piperidin-1-yl)-N-methylpicolinamide]	0.95		
CCc1cc2ncc(CN3CC=C(c4cn5cc(C(F)(F)F)nc5cn4)CC3)cc2[nH]c1=O [Compound 33, 3-ethyl-7-((4-(2-(trifluoromethyl)imidazo[1,2-a]pyrazin-6-yl)-3,6-dihydropyridin-1(2H)-yl)methyl)-1,5-naphthyridin-2(1H)-one]	0.71	1.9	77.6

Continued, in another order:

IC50 [1] [nM]	SMILES	IC50 [2] [nM]	inhibition at 10 µM [2] [%]
0.8	CCc1cc2ncc(CN3CC4CN(c5ccc(C(=O)NC)nc5)CC4C3)cc2[nH]c1=O (stereo not drawn) [Compound 1, 5-(5-((7-ethyl-6-oxo-5,6-dihydro-1,5-naphthyridin-3-yl)methyl)hexahydropyrrolo [3,4-c]pyrrol-2(1H)-yl)-N-methylpicolinamide]		
0.78	CCc1cc2ncc(CN3CC4(C3)CN(c3ccc(C(=O)NC)nc3)C4)cc2[nH]c1=O [Compound 8, 5-(6-((7-ethyl-6-oxo-5,6-dihydro-1,5-naphthyridin-3-yl)methyl)-2,6-diazaspiro[3.3]heptan-2-yl)-N-methylpicolinamide]		
0.36	CCc1cc2ncc(CN3CC[C@@H](Nc4ccc(C(=O)NC)nc4)C3)cc2[nH]c1=O [Compound 19, (R)-5-((1-((7-ethyl-6-oxo-5,6-dihydro-1,5-naphthyridin-3-yl)methyl)pyrrolidin-3-yl)amino)-N-methylpicolinamide]		
0.26	CCc1cc2ncc(CN3CC=C(c4ccc(C(=O)Nc5cnn(C)c5)nc4)CC3)cc2[nH]c1=O [Compound 20, 1′-((7-ethyl-6-oxo-5,6-dihydro-1,5-naphthyridin-3-yl)methyl)-N-(1-methyl-1H-pyrazol-4-yl)-1′,2′,3′,6′-tetrahydro-[3,4′-bipyridine]-6-carboxamide]	0.7	91.8
0.33	CCc1cc2ncc(C=C3CCN(c4ccc(C(=O)NC)nc4)CC3)cc2[nH]c1=O [Compound 28, 5-(4-((7-ethyl-6-oxo-5,6-dihydro-1,5-naphthyridin-3-yl)methylene)piperidin-1-yl)-N-methylpicolinamide]		
0.26	CCc1cc2ncc(CN3CC=C(c4ccc(NC(=O)c5cnn(C)c5)nc4)CC3)cc2[nH]c1=O [Compound 30, N-(1′-((7-ethyl-6-oxo-5,6-dihydro-1,5-naphthyridin-3-yl)methyl)-1′,2′,3′,6′-tetrahydro-[3,4′-bipyridin]-6-yl)-1-methyl-1H-pyrazole-4-carboxamide]	0.7	91.8
0.19	CCc1cc2ncc(C=C3CCN(c4ccc(C(=O)Nc5cnn(C)c5)nc4)CC3)cc2[nH]c1=O [Compound 32, 5-(4-((7-ethyl-6-oxo-5,6-dihydro-1,5-naphthyridin-3-yl)methylene)piperidin-1-yl)-N-(1-methyl-1H-pyrazol-4-yl)picolinamide]	13.8	99.1
